# In publication PMC11089204 (Frontiers in Pharmacology, 2024):
# What was measured:
# [1] = system: dopamine (DAT) transporter; design: method as in Rickli et al., 2016; conditions: ref Rickli et al., 2016; cited from earlier work
# [2] = system: serotonin transporter (SERT); design: method as in Rickli et al., 2016; conditions: ref Rickli et al., 2016; cited from earlier work
# [3] = biological target: T1, recombinant CYP2B6 (Homo sapiens, UniProt P20813); assay: Incubation with recombinant CYP2B6 enzymes; format: in vitro ADME; conditions: 1,000 nM psilocin, rec. CYP2B6
# T1 construct: purchased Corning Life Sciences B.V
# Description: (§1) Corning UltraPool human liver microsomes (HLM) 150 (20 mg/mL), human intestinal microsomes (HIM) pool (10 mg/mL) as well as recombinant human CYP enzymes (with P450 oxidoreductase, OR) including CYP1A2+OR (0.5 nmol), CYP2B6+OR (0.5 nmol), CYP2C8+OR (1.0 nmol), CYP2C9*1+OR (1 nmol), CYP2C19+OR (0.5 nmol), CYP2D6*1+OR (0.5 nmol), CYP2E1+OR + cytochrome b5 (1 nmol), CYP3A4+OR + cytochrome b5 (0.5 nmol), MAO-A (5 mg/mL), MAO-B (5 mg/mL), and UGT1A10 (5 mg/mL) were purchased from Corning Life Sciences B.V (Amsterdam, Netherlands). All microsomes and recombinant enzyme solutions were aliquoted and stored at −80 °C until further use.
# The total volume of the reaction mixture was 500 μL. […] Samples were either directly analyzed by liquid chromatography tandem mass spectrometry (LC-MS/MS) or briefly stored at −20°C until analysis.
# [4] = system: human intestinal microsomes (HIM); assay: Glucuronidation with human intestinal microsomes; format: in vitro ADME; conditions: for psilocin concentration: absence of HIM
# Description: as §1, with “use. Co-factors including NADPH regenerating system solution A (25 mM NADP+, 66 mM glucose-6-phosphate, and 66 mM MgCl2 in water), NADPH regenerating system solution B (40 U/mL glucose-6-phosphate dehydrogenase in 5 mM sodium citrate), UGT reaction mix solution A (25 mM uridine 5′-diphospho-glucuronic acid in water), and UGT reaction mix solution B (250 mM Tris-HCl, 40 mM MgCl2, and 0.125 mg/mL alamethicin in water) were also obtained from Corning Life Sciences B.V.” for “use.”
# The assay described in section 2.5.1 was adjusted to suit the glucuronidation system. […] HLM were diluted as described in section 2.5.1, while HIM or UGT1A10 enzymes were diluted 1:40 (end concentration […] and 0.125 mg/mL, respectively) in the reaction mix. Sampling time points were adjusted to 0, 15, 30, 60, 90, 120, 180, and 240 min.
# [5] = biological target: T2, recombinant human UGT1A10 (Homo sapiens, UniProt Q9HAW8); assay: Glucuronidation with recombinant UGT1A10; format: in vitro ADME; conditions: for psilocin concentration (mean ± SD): 1,000 nM psilocin
# T2 construct: purchased Corning Life Sciences B.V
# T2 sequence (Q9HAW8 26-530): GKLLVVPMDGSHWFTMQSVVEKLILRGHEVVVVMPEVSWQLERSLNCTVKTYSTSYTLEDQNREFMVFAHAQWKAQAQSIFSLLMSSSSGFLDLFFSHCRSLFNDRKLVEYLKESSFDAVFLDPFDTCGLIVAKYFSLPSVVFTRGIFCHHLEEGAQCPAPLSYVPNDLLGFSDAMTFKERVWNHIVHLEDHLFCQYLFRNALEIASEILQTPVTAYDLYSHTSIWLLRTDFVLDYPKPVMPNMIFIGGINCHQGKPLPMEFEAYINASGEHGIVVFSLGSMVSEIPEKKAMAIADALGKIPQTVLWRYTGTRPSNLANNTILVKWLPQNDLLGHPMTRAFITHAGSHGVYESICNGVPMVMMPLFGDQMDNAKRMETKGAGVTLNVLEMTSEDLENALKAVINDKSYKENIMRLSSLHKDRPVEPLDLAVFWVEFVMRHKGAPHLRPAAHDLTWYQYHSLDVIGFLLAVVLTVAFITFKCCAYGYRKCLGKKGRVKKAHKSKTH
# Description: as §1
# The assay described in section 2.5.1 was adjusted to suit the glucuronidation system.
# [6] = system: CYP2D6; assay: Influence of CYP2D6 genotype on psilocin plasma exposure in humans; format: in vivo; conditions: human, PM/IM/EM/UM genotypes, AUC z-scores
# Description: Genomic DNA was extracted from whole blood using the QIAamp DNA Blood Mini Kit (Qiagen, Hombrechtikon, Switzerland) and an automated QIAcube system. SNP genotyping was performed using commercial TaqMan SNP genotyping assays (LuBio Science, Lucerne, Switzerland). We assayed the following SNPs and respective alleles: CYP2D6*3 (rs35742686, assay: C_32407232_50), CYP2D6*4 (rs3892097, assay: C_27102431_D0, and rs1065852, assay: C_11484460_40), CYP2D6*6 (rs5030655, assay: C_32407243_20), CYP2D6*9 (rs5030656, assay: C_32407229_60), CYP2D6*10 (rs1065852), CYP2D6*17 (rs28371706, assay: C_2222771_A0, and rs16947, assay: C_27102425_10), CYP2D6*29 (rs59421388, assay: C_3486113_20), and CYP2D6*41 (rs28371725, assay: C_34816116_20, and rs16947). CYP2D6 gene deletion (allele *5) and duplication/multiplication (allele *xN) were determined using a TaqMan Copy Number Assay (Hs04502391_cn). Activity scores for CYP2D6 were assigned according to established guidelines ([Gaedigk et al., 2008]; [Crews et al., 2012]; [Hicks et al., 2013]; [Hicks et al., 2015]; [Caudle et al., 2020]). The classification into different genotypes was as follows: poor metabolizer (PM, activity score = 0), intermediate metabolizer (IM, activity score = 0.5–1), extensive metabolizer (EM, activity score = 1.5–2), and ultra-rapid metabolizer (UM, activity score > 2).
# T1 sequence (P20813 whole entry): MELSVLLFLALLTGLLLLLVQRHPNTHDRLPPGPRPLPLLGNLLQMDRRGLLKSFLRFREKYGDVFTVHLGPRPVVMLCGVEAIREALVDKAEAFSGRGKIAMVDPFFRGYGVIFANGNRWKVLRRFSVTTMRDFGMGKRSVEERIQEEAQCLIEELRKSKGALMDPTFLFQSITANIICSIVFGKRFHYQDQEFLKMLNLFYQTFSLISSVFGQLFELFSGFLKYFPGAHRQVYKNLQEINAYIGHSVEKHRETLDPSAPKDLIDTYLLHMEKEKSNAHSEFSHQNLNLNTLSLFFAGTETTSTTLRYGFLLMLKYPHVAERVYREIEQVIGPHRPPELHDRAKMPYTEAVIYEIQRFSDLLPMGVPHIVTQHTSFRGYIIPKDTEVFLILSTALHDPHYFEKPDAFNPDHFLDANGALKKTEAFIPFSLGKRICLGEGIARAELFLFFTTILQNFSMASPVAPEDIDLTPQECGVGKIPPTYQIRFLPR
smiles,measurement,setting,value
"CN(C)CCc1c[nH]c2cccc(O)c12 [psilocin, 4-hydroxy-N,N-dimethyltryptamine]",inhibition of DAT,[1],not
same,inhibition of SERT,[2],moderately inhibits
same,metabolism of psilocin,[3],did not metabolize
same,decrease of psilocin concentration through glucuronidation,"[4]; 1,000 nM psilocin, HIM, 240 min",37%
same,psilocin concentration (mean ± SD),"[4]; HIM, t = 0","1,085 ± 157 nM"
same,psilocin concentration (mean ± SD),"[4]; HIM, t = 240",684 ± 53 nM
same,psilocin concentration,[4]; t = 0,980 ± 77 nM
same,psilocin concentration,[4]; t = 240,893 ± 91 nM
same,psilocin concentration (mean ± SD),"[5]; rec. UGT1A10, t = 0 min","1,029 ± 60 nM"
same,psilocin concentration (mean ± SD),"[5]; rec. UGT1A10, t = 240 min",979 ± 95 nM
same,psilocin concentration,"[5]; absence of UGT1A10, t = 0",980 ± 77 nM
same,psilocin concentration,"[5]; absence of UGT1A10, t = 240",893 ± 91 nM
same,effect of CYP2D6 genotype on plasma concentration of free psilocin,[6],did not alter
